Measured values reported in BindingDB's records for patent US20240270732 (Chengdu Biobel Biotechnology Co., 2024).
pIC50: −log10 of the molar value.

biological target: T1, Receptor-interacting serine/threonine-protein kinase 1 (Homo sapiens, UniProt Q13546); experiment: Inhibitory Activity Assay
T1 sequence (Q13546 whole entry): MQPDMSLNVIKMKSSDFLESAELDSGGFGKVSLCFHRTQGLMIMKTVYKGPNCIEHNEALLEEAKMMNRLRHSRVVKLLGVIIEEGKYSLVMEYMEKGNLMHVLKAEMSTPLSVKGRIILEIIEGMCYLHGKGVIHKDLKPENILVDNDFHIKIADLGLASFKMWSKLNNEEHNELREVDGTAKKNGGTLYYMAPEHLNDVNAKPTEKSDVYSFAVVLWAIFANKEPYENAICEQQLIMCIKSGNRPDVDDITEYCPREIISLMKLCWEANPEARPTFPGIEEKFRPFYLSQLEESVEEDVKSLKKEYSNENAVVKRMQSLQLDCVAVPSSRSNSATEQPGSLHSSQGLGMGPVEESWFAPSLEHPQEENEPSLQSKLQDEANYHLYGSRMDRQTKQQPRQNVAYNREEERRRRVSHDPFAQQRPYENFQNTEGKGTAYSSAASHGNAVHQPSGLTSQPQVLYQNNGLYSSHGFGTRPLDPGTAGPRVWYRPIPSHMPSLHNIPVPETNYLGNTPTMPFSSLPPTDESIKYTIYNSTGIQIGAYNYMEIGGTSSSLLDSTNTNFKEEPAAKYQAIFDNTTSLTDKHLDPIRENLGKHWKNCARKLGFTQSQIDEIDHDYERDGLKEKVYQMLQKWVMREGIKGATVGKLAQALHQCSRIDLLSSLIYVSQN
Protocol: The compound of the present invention and the control compound were dissolved in the assay buffer (50 mM Hepes pH 7.5, 50 mM NaCl, 30 mM MgCl2, 1 mM DTT, 0.02% CHAPS, 0.5 mg/mL BSA), and diluted in a ratio of 1:1.5 using a 22-point titration (high concentration 2 μM), and then added to a 384-well plate. […] After completion of the reaction, 5 μL of ADP-Glo reagent containing 0.02% CHAPS was added to each well and incubated at room temperature for 1 h to terminate the kinase reaction and use up all remaining ATP. Then, 5 μL of ADP-Glo detection solution containing 0.02% CHAPS was added to each well and incubated at room temperature for 30 min to measure the emittance intensity.

`C[C@H]1Oc2ccc(C#CCN3CCN(CC#Cc4ccc5c(c4)N(C)C(=O)[C@@H](NC(=O)c4n[nH]c(Cc6cccc(N)c6)n4)[C@@H](C)O5)CC3)cc2N(C)C(=O)[C@H]1NC(=O)c1n[nH]c(Cc2cccc(N)c2)n1` [US20240270732, Compound I-72] and `C[C@H]1Oc2ccc(C#CCN3CCN(CC#Cc4ccc5c(c4)N(C)C(=O)[C@@H](NC(=O)c4n[nH]c(Cc6cccnc6)n4)[C@@H](C)O5)CC3)cc2N(C)C(=O)[C@H]1NC(=O)c1n[nH]c(Cc2cccnc2)n1` [US20240270732, Compound I-68] are within 0.2 log units of each other in pIC50: 7.66 for the first, 7.80 for the second.

`CN1C(=O)[C@@H](NC(=O)c2cn(Cc3ccccc3)cn2)COc2ccc(C#CCN3CCN(CC#Cc4ccc5c(c4)N(C)C(=O)[C@@H](NC(=O)c4cn(Cc6ccccc6)cn4)CO5)CC3)cc21` [US20240270732, Compound I-62] and `C[C@H]1Oc2ccc(C#CCN3CCN(CC#Cc4ccc5c(c4)N(C)C(=O)[C@@H](NC(=O)c4cn(Cc6ccccc6)cn4)[C@@H](C)O5)CC3)cc2N(C)C(=O)[C@H]1NC(=O)c1cn(Cc2ccccc2)cn1` [US20240270732, Compound I-60] are within 0.2 log units of each other in pIC50: 8.09 for the first, 8.00 for the second.

`C[C@H]1Oc2ccc(C#CCN3CCN(CC#Cc4ccc5c(c4)N(C)C(=O)[C@@H](NC(=O)c4ncn(Cc6ccccc6)n4)CO5)CC3)cc2N(C)C(=O)[C@H]1NC(=O)c1ncn(Cc2ccccc2)n1` [US20240270732, Compound I-31] and `C[C@H]1Oc2ccc(C#CCN3CCN(CC#Cc4ccc5c(c4)N(C)C(=O)[C@@H](NC(=O)c4nnn(Cc6ccccc6)n4)CO5)CC3)cc2N(C)C(=O)[C@H]1NC(=O)c1ncn(Cc2ccccc2)n1` [US20240270732, Compound I-26] are within 0.2 log units of each other in pIC50: 8.53 for the first, 8.43 for the second.

`C[C@H]1Oc2ccc(C#CCCCN(C)CCCC#Cc3ccc4c(c3)N(C)C(=O)[C@@H](NC(=O)c3n[nH]c(Cc5ccccc5)n3)[C@@H](C)O4)cc2N(C)C(=O)[C@H]1NC(=O)c1n[nH]c(Cc2ccccc2)n1` [US20240270732, Compound I-95] and `C[C@H]1Oc2ccc(C#CCCCN(C)CCCC#Cc3ccc4c(c3)N(C)C(=O)[C@@H](NC(=O)c3ncn(Cc5ccccc5)n3)[C@@H](C)O4)cc2N(C)C(=O)[C@H]1NC(=O)c1ncn(Cc2ccccc2)n1` [US20240270732, Compound I-97] are within 0.2 log units of each other in pIC50: 7.70 for the first, 7.74 for the second.

Compared with `C[C@H]1Oc2ccc(C#CCN3CCN(CC#Cc4ccc5c(c4)NC(=O)[C@@H](NC(=O)c4n[nH]c(Cc6ccccc6)n4)[C@@H](C)O5)CC3)cc2NC(=O)[C@H]1NC(=O)c1n[nH]c(Cc2ccccc2)n1` [US20240270732, Compound I-17], `CN1C(=O)[C@@H](NC(=O)c2n[nH]c(Cc3ccccc3)n2)COc2ccc(C#CCN3CCN(CC#Cc4ccc5c(c4)N(C)C(=O)[C@@H](NC(=O)c4n[nH]c(Cc6ccccc6)n4)CO5)CC3)cc21` [US20240270732, Compound I-11] is 0.26 log units higher in pIC50: 8.45 for the first, 8.71 for the second. The second is the more potent here.

`C[C@H]1Oc2ccc(C#CCN3CCN(CC#Cc4ccc5c(c4)N(C)C(=O)[C@@H](NC(=O)c4ncn(Cc6cccc(O)c6)n4)[C@@H](C)O5)CC3)cc2N(C)C(=O)[C@H]1NC(=O)c1ncn(Cc2cccc(O)c2)n1` [US20240270732, Compound I-76] and `C[C@H]1Oc2ccc(C#CCN3CCN(CC#Cc4ccc5c(c4)N(C)C(=O)[C@@H](NC(=O)c4ncn(Cc6cccc(N)c6)n4)[C@@H](C)O5)CC3)cc2N(C)C(=O)[C@H]1NC(=O)c1ncn(Cc2cccc(N)c2)n1` [US20240270732, Compound I-78] are within 0.2 log units of each other in pIC50: 7.65 for the first, 7.64 for the second.

`CN1C(=O)[C@@H](NC(=O)c2ncn(Cc3ccccc3)n2)COc2ccc(C#CCOCCOCCOCCOCCOCC#Cc3ccc4c(c3)N(C)C(=O)[C@@H](NC(=O)c3ncn(Cc5ccccc5)n3)CO4)cc21` [US20240270732, Compound I-85-1] and `CN1C(=O)[C@@H](NC(=O)c2n[nH]c(Cc3ccccc3)n2)COc2ccc(C#CCOCCOCCOCCOCCOCC#Cc3ccc4c(c3)N(C)C(=O)[C@@H](NC(=O)c3n[nH]c(Cc5ccccc5)n3)CO4)cc21` [US20240270732, Compound I-82-1] are within 0.2 log units of each other in pIC50: 8.13 for the first, 8.18 for the second.

Going from `COCCOCCOCCOCCOCC#Cc1ccc2c(c1)N(C)C(=O)[C@@H](NC(=O)c1ncn(Cc3ccccc3)n1)[C@@H](C)O2` [US20240270732, Compound I-101] to `C#CCOCCOCCOCCOCCOCC#Cc1ccc2c(c1)N(C)C(=O)[C@@H](NC(=O)c1ncn(Cc3ccccc3)n1)[C@@H](C)O2` [US20240270732, Compound I-84-2], the pIC50 falls from 8.60 to 8.10 (0.50 log units).

First: C[C@H]1Oc2ccc(C#CCN3CCN(CC#Cc4ccc5c(c4)N(C)C(=O)[C@@H](NC(=O)c4cn(Cc6ccccc6)cn4)CO5)CC3)cc2N(C)C(=O)[C@H]1NC(=O)c1n[nH]c(Cc2ccccc2)n1 [US20240270732, Compound I-9]
Second: C[C@H]1Oc2ccc(C#CCN3CCN(CC#Cc4ccc5c(c4)N(C)C(=O)[C@@H](NC(=O)c4n[nH]c(Cc6ccccc6)n4)CO5)CC3)cc2N(C)C(=O)[C@H]1NC(=O)c1ncn(Cc2ccccc2)n1 [US20240270732, Compound I-12]
The pIC50 of the first is 0.50 log units lower: 8.06 for the first, 8.56 for the second.

`C[C@H]1Oc2ccc(C#CCN3CCN(CC#Cc4ccc5c(c4)N(C)C(=O)[C@@H](NC(=O)c4cnn(Cc6ccccc6)c4)[C@@H](C)O5)CC3)cc2N(C)C(=O)[C@H]1NC(=O)c1cnn(Cc2ccccc2)c1` [US20240270732, Compound I-48] and `C[C@H]1Oc2ccc(C#CCN3CCN(CC#Cc4ccc5c(c4)N(C)C(=O)[C@@H](NC(=O)c4cc(Cc6ccccc6)on4)[C@@H](C)O5)CC3)cc2N(C)C(=O)[C@H]1NC(=O)c1cc(Cc2ccccc2)on1` [US20240270732, Compound I-46] are within 0.2 log units of each other in pIC50: 7.88 for the first, 7.97 for the second.

`C#CCN1CCN(CC#Cc2ccc3c(c2)N(C)C(=O)[C@@H](NC(=O)c2noc(Cc4ccccc4)n2)[C@@H](C)O3)CC1` [US20240270732, Compound I-51] and `C#CCN1CCN(CC#Cc2ccc3c(c2)N(C)C(=O)[C@@H](NC(=O)c2n[nH]c(Cc4cccnc4)n2)[C@@H](C)O3)CC1` [US20240270732, Compound I-67] are within 0.2 log units of each other in pIC50: 7.80 for the first, 7.84 for the second.

Compared with `COCCOCCOCCOCCOCC#Cc1ccc2c(c1)N(C)C(=O)[C@@H](NC(=O)c1ncn(Cc3ccccc3)n1)CO2` [US20240270732, Compound I-102], `C[C@H]1Oc2ccc(C#CCCO)cc2N(C)C(=O)[C@H]1NC(=O)c1ncn(Cc2ccccc2)n1` [US20240270732, Compound I-106] is 0.54 log units lower in pIC50: 8.73 for the first, 8.19 for the second. The first is the more potent here.

Going from `C[C@H]1Oc2ccc(C#CCCO)cc2N(C)C(=O)[C@H]1NC(=O)c1n[nH]c(Cc2ccccc2)n1` [US20240270732, Compound I-105] to `C[C@H]1Oc2ccc(C#CCCCCC(=O)O)cc2N(C)C(=O)[C@H]1NC(=O)c1n[nH]c(Cc2ccccc2)n1` [US20240270732, Compound I-107], the pIC50 falls from 8.31 to 7.70 (0.61 log units). The first is the more potent here.

Going from `C[C@H]1Oc2ccc(C#CCOCCOCCOCCOCCOCC#Cc3ccc4c(c3)N(C)C(=O)[C@@H](NC(=O)c3n[nH]c(Cc5ccccc5)n3)CO4)cc2N(C)C(=O)[C@H]1NC(=O)c1n[nH]c(Cc2ccccc2)n1` [US20240270732, Compound I-83] to `C[C@H]1Oc2ccc(C#CCN3CCN(CC#Cc4ccc5c(c4)N(C)C(=O)[C@@H](NC(=O)c4ncn(Cc6ccccc6)n4)CO5)CC3)cc2N(C)C(=O)[C@H]1NC(=O)c1cn(Cc2ccccc2)cn1` [US20240270732, Compound I-33], the pIC50 rises from 8.09 to 8.45 (0.36 log units). The second is the more potent here.

Going from `C#Cc1ccc2c(c1)N(C)C(=O)[C@@H](NC(=O)c1ncn(Cc3ccccc3)n1)[C@@H](C)O2` [US20240270732, Compound I-120] to `C#CCN1CCN(CC#Cc2ccc3c(c2)NC(=O)[C@@H](NC(=O)c2n[nH]c(Cc4ccccc4)n2)[C@@H](C)O3)CC1` [US20240270732, Compound I-16], the pIC50 rises from 7.97 to 8.25 (0.28 log units). The second is the more potent here.
